# Measured values reported in patent publication US11919902B2, “Aryl-bipyridine amine derivatives as phosphatidylinositol phosphate kinase inhibitors” (HiberCell, Inc., priority 2017, dated 2024).
# Columns and labels:
# GST tagged PIP4KtypeIIA = biological target: T1, GST tagged PIP4KtypeIIA (Homo sapiens, UniProt P48426); assay: ADP-glo kinase assay PIP4K 2A (PIP4KtypeIIA inhibition assay); format: biochemical; conditions: Table 3; compounds listed under IC50 range headings; 10 uM ATP, 0.5 nM PIP4KIIA
# T1 construct: made in house; host or cells: E. coli
# T1 sequence (P48426 1-406): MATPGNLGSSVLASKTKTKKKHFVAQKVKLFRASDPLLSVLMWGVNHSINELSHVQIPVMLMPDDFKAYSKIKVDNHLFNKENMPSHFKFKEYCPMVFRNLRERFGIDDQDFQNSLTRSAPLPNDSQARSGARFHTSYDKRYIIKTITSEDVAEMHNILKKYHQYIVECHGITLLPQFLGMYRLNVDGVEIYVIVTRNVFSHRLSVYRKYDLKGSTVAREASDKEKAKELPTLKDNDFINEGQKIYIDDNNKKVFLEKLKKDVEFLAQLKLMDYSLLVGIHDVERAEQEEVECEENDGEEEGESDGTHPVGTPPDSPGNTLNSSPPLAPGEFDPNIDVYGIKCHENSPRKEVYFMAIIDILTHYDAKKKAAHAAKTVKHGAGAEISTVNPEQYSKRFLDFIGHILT
# From the text: GST tagged PIP4KtypeIIA and B enzymes were overexpressed in E. Coli and purified to >80% homogeneity. Phosphatidyl inositol-5-phosphate (PI5P, Cat. #850152, Avanti Polar Lipids Inc.) was used as the lipid substrate and phosphatidyl ethanolamine (DOPE 18:1, Cat. #850725, Avanti Polar Lipids Inc.) was used as the carrier lipid for assays. Ultrapure ATP and GTP was purchased from Bellbrooke Labs. ADP Glo reagents were obtained from Promega. Transcreener FI reagent was obtained from Bellbrooke labs.
# 1. HEPES buffer mix: 200 mM HEPES pH 7.4, 50 mM MgCl2, 0.05% v/v triton×100
# 2. HNE buffer: 20 mM HEPES, pH 7.4, 100 mM NaCl, 0.5 mM EGTA
# 3. H:E buffer: 30 mM HEPES, pH 7.4, 1 mM EGTA
# Enzyme preparation: GST-tagged PIP4KtypeIIA (5 uL, 1.43 mg/mL) was diluted (1:10) to 50 uL using HNE buffer. From the 1:10 diluted stock, a 6.4 uL aliquot was diluted further to 5 mL using HNE buffer to yield 5× enzyme stock (2.5 nM).
# Lipid Preparation: In a 10 mL pyrex glass vial, lug of PI5P and lug of DOPE were suspended in 2.5 mL of HEPES buffer mix and 2.5 mL of H:E buffer. The contents were mixed and sonicated for 3 min to yield a translucent lipid stock.
# Compound Preparation: Compounds were stored as 5 mM stocks in neat DMSO as room temperature in glass vials. 5 mM stocks were diluted to 2 mM and then serially diluted (3×) in neat DMSO in 96 well polypropylene plates. From the serially diluted stocks, 3 uL was delivered into 250 uL of 25% DMSO (in water) to generate 5× compound stocks. Typically, the highest compound conc. was 24 uM.
# The assay volume was kept at 25 uL. To each well of the reaction plate, 10 uL of lipid stock (1:1 ratio PI5P:DOPE) was delivered. This was followed by the addition of 5 uL of compound in 25% DMSO. Then, to each well, 5 uL of 2.5 nM (5×) typeIIA enzyme was delivered. The contents were mixed well and incubated for 1 h at 27 C. After 1 h, reaction was initiated by adding 5 uL of 50 uM ATP and the contents were mixed well with a multi-channel pipetteman. The final concentration of the reagents are as follows: 50 mM HEPES, pH 7.3, 10 mM MgCl2, 20 mM NaCl, 0.01% v/v triton-X100, 5% DMSO, 10 uM ATP, 80 uM (2 ug) PI5P, 2 ug DOPE, and 0.5 nM PIP4KIIA. Typically, the highest conc. of compounds was 4.8 uM and the lowest conc. was 0.
# After 1 hr, the reaction was quenched by adding 25 uL of ADP Glo reagent. The contents were incubated for 1 hr. Afterwards, 50 uL of kinase detection reagent was delivered. The contents were incubated for another hour. The luminescence was read using Molecular Devices Paradigm plate reader. […] The blanks were averaged and subtracted from all other wells. Using a calibration curve, RLU was converted to uM ADP (product). IC50 was calculated by plotting the residual activity (expressed as % No inhibitor control) vs. log [Inh. conc.]
# GST tagged PIP4KtypeIIB = biological target: T2, GST tagged PIP4KtypeIIB (Homo sapiens, UniProt P78356); assay: Trans-FI P kinase assay PIP4K2B (PIP4KtypeIIB inhibition assay); format: biochemical; conditions: Table 4; compounds listed under IC50 range headings; 100 uM GTP, 5 nM PIP4KIIB; read-out: Trans-FI P kinase assays: PIP4K2B IC50
# T2 construct: made in house; host or cells: E. coli
# T2 sequence (P78356 1-416): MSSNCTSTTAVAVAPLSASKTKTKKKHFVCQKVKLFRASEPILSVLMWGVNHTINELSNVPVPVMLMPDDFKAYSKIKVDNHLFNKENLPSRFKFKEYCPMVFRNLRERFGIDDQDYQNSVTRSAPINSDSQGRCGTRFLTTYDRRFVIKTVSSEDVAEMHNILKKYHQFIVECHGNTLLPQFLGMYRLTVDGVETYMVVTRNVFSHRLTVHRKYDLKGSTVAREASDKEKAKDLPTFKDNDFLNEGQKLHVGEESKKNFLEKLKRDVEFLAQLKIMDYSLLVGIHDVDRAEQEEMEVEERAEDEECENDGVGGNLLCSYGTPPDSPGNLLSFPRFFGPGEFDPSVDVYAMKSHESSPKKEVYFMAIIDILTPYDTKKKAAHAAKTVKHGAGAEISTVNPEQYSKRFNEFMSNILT
# How it was run: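 Transcreener FI fluorescence, converted to GDP by calibration, tracked product from 5 nM E. coli-expressed GST-PIP4KIIB acting on 80 uM PI5P (DOPE carrier) with 100 uM GTP. Compound (top 4.8 uM final, 5% DMSO) was preincubated 1 h at 27 C before the 2 h reaction; IC50 fitted from residual activity.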
Structure (SMILES),IC50 (GST tagged PIP4KtypeIIA) [nM],IC50 (GST tagged PIP4KtypeIIB) [nM]
"CN(C)C(=O)c1ccc(-c2cc(-c3ccnc4[nH]c(C(=O)N5CC6(COC6)C5)cc34)cnc2N)nc1 [Example 147, 5′-(2-(2-oxa-6-azaspiro[3.3]heptane-6-carbonyl)-1H-pyrrolo[2,3-b]pyridin-4-yl)-2′-amino-N,N-dimethyl-[2,3′-bipyridine]-5-carboxamide]",100 to 1000,10 to 100
"Cc1c(-c2ccc(N3CCCC3=O)cc2)cncc1-c1cn(C)c2ncc([C@H](C)O)cc12 (single isomer, unassigned) [196(S)]",100 to 1000,100 to 1000
"COC(=O)c1cc2c(-c3cncc(-c4ccc(N5CCCC5=O)cn4)c3)ccnc2[nH]1 [Example 248, methyl 4-(5-(2-oxopyrrolidin-1-yl)-[2,3′-bipyridin]-5′-yl)-1H-pyrrolo[2,3-b]pyridine-2-carboxylate]",1000 to 2500,100 to 1000
"O=C1CCCN1c1ccc(-c2cncc(-c3ccnc4c3cc3n4CCN(c4ccccn4)C3=O)c2)cc1 [Example 207, 4-(5-(4-(2-oxopyrrolidin-1-yl)phenyl)pyridin-3-yl)-7-(pyridin-2-yl)-8,9-dihydropyrido[3′,2′:4,5]pyrrolo[1,2-a]pyrazin-6(7H)-one]",10 to 100,10 to 100
"CN(C)C(=O)c1cnc2occ(-c3cncc(-c4ccc(N5CCCC5=O)cc4)c3)c2c1 [Example 282, N,N-dimethyl-3-(5-(4-(2-oxopyrrolidin-1-yl)phenyl)pyridin-3-yl)furo[2,3-b]pyridine-5-carboxamide]",10 to 100,100 to 1000
"Cc1nc(-c2cncc(-c3ccc(N4CCCC4=O)cc3)c2)c2sc(N3CCCCC3)nc2n1 [Example 286, 1-(4-(5-(5-methyl-2-(piperidin-1-yl)thiazolo[4,5-d]pyrimidin-7-yl)pyridin-3-yl)phenyl)pyrrolidin-2-one]",10 to 100,100 to 1000
"CN(C)C(=O)c1ccc(-c2cc(-c3ccnc4[nH]c(C(=O)NCCc5ncc[nH]5)cc34)cnc2N)nc1 [Example 150, N-(2-(1H-imidazol-2-yl)ethyl)-4-(2′-amino-5-(dimethylcarbamoyl)-[2,3′-bipyridin]-5′-yl)-1H-pyrrolo[2,3-b]pyridine-2-carboxamide]",100 to 1000,10 to 100
"O=C1CCCN1c1ccc(-c2cncc(-c3c4n(c5ncncc35)CCC4)c2)cc1 [Example 352, 1-(4-(5-(7,8-dihydro-6H-pyrimido[5,4-b]pyrrolizin-5-yl)pyridin-3-yl)phenyl)pyrrolidin-2-one]",10 to 100,10 to 100
"CN(C)C(=O)c1ccc(-c2cc(-c3ccnc4[nH]c(C(=O)N5CCS(=O)(=O)CC5)cc34)cnc2N)nc1 [Example 142, 2′-amino-5′-(2-(1,1-dioxidothiomorpholine-4-carbonyl)-1H-pyrrolo[2,3-b]pyridin-4-yl)-N,N-dimethyl-[2,3′-bipyridine]-5-carboxamide]",100 to 1000,100 to 1000
"Cc1cc(N2CCCC2=O)ccc1-c1cncc(-c2cn(C)c3ncc([C@@H](C)O)cc23)c1 (single isomer, unassigned) [197(R)]",100 to 1000,1000 to 2500
"CC(C)CNC(=O)c1cc2c(-c3cncc(-c4ccc(N5CCCC5=O)cc4)c3)ccnc2[nH]1 [Example 234, N-isobutyl-4-(5-(4-(2-oxopyrrolidin-1-yl)phenyl)pyridin-3-yl)-1H-pyrrolo[2,3-b]pyridine-2-carboxamide]",100 to 1000,10 to 100
"CN(C)C(=O)c1ccc(-c2cc(-c3ccnc4[nH]c(C(=O)NC5COC5)cc34)cnc2N)nc1 [Example 146, 4-(2′-amino-5-(dimethylcarbamoyl)-[2,3′-bipyridin]-5′-yl)-N-(oxetan-3-yl)-1H-pyrrolo[2,3-b]pyridine-2-carboxamide]",100 to 1000,10 to 100
"COC(=O)c1cc2c(-c3cncc(-c4ccc(N5CCCC5=O)cc4)c3)c(Cl)cnc2[nH]1 [Example 296, methyl 5-chloro-4-(5-(4-(2-oxopyrrolidin-1-yl)phenyl)pyridin-3-yl)-1H-pyrrolo[2,3-b]pyridine-2-carboxylate]",100 to 1000,100 to 1000
"Cn1c(C(N)=O)cc2c(-c3cncc(-c4ccc(N5CCCC5=O)cc4)c3)cn(C)c2c1=O [Example 263, 1,6-dimethyl-7-oxo-3-(5-(4-(2-oxopyrrolidin-1-yl)phenyl)pyridin-3-yl)-6,7-dihydro-1H-pyrrolo[2,3-c]pyridine-5-carboxamide]",1000 to 2500,1000 to 2500
"CN(C)C(=O)c1cnc2[nH]c(C3CC3)c(-c3cncc(-c4ccc(N5CCCC5=O)cc4)c3)c2c1 [Example 252, 2-cyclopropyl-N,N-dimethyl-3-(5-(4-(2-oxopyrrolidin-1-yl)phenyl)pyridin-3-yl)-1H-pyrrolo[2,3-b]pyridine-5-carboxamide]",10 to 100,10 to 100
"O=C(c1cc2c(-c3cncc(-c4ccc(N5CCCC5=O)cc4)c3)ccnc2[nH]1)N1CCOCC1 [Example 229, 1-(4-(5-(2-(morpholine-4-carbonyl)-1H-pyrrolo[2,3-b]pyridin-4-yl)pyridin-3-yl)phenyl)pyrrolidin-2-one]",100 to 1000,100 to 1000
"CN1CCn2c(cc3c(-c4cncc(-c5ccc(N6CC(C)(C)CC6=O)cc5)c4)ccnc32)C1=O [Example 200, 4-(5-(4-(4,4-dimethyl-2-oxopyrrolidin-1-yl)phenyl)pyridin-3-yl)-7-methyl-8,9-dihydropyrido[3′,2′:4,5]pyrrolo[1,2-a]pyrazin-6(7H)-one]",100 to 1000,10 to 100
"CNC(=O)c1cc2c(-c3cncc(-c4ccc(N5CCCC5=O)cc4)c3)ccnc2[nH]1 [Example 240, N-methyl-4-(5-(4-(2-oxopyrrolidin-1-yl)phenyl)pyridin-3-yl)-1H-pyrrolo[2,3-b]pyridine-2-carboxamide]",100 to 1000,10 to 100
"O=C(NCCc1cnccn1)c1cc2c(-c3cncc(-c4ccc(N5CCCC5=O)cc4)c3)ccnc2[nH]1 [Example 255, 4-(5-(4-(2-oxopyrrolidin-1-yl)phenyl)pyridin-3-yl)-N-(2-(pyrazin-2-yl)ethyl)-1H-pyrrolo[2,3-b]pyridine-2-carboxamide]",100 to 1000,10 to 100
